Laboratory results from PubChem BioAssay AID342 (DTP/NCI, 2004).
Values joined by “and” are separate entries in the source; they are usually repeats but may differ in a detail not shown here. Equal entries are not always repeated.

Tested on: Swiss mice, Sarcoma 180 sc, mean tumor weight T/C
Test: NCI In Vivo Anticancer Drug Screen. Data for tumor model Sarcoma 180 (subcutaneous) in Swiss mice
Conditions: endpoint: mean tumor weight, higher = larger tumour
In short: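 Transplantable tumors were established in mice, compound was given, then survival or tumor size was recorded. The treated value was divided by the vehicle-control value.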

[1] = dose: 30.0 mg/kg/injection, schedule: Q01DX007 (ip), vehicle: saline
[2] = dose: 40.0 mg/kg/injection, schedule: Q01DX007 (ip), vehicle: saline
[3] = dose: 6.25 mg/kg/injection, schedule: Q01DX007 (ip), vehicle: saline

## CCOC(=O)c1c(C#N)c(Cl)nc(C)c1[N+](=O)[O-]
dose: 3.0 mg/kg/injection, schedule: Q#A X014 (ip), vehicle: carboxymethylcellulose (CMC)
  T/C: 64 % of control
dose: 6.0 mg/kg/injection, schedule: Q#A X014 (ip), vehicle: carboxymethylcellulose (CMC)
  T/C: 70 % of control

## CCCCCCCCCCOP(N)(=O)OCCCCCCCCCC
dose: 27.75 mg/kg/injection, schedule: Q#A X014 (ip), vehicle: carboxymethylcellulose (CMC)
  T/C: 56 % of control and 64 % of control
dose: 41.5 mg/kg/injection, schedule: Q#A X014 (ip), vehicle: carboxymethylcellulose (CMC)
  T/C: 60 % of control and 63 % of control

## CC(=O)Nc1ccc2c(c1)Cc1cc(NC=O)ccc1-2
dose: 110.0 mg/kg/injection, schedule: Q01DX007 (ip), vehicle: carboxymethylcellulose (CMC)
  T/C: 54 % of control and 72 % of control
dose: 165.0 mg/kg/injection, schedule: Q01DX007 (ip), vehicle: carboxymethylcellulose (CMC)
  T/C: 87 % of control
dose: 250.0 mg/kg/injection, schedule: Q01DX007 (ip), vehicle: carboxymethylcellulose (CMC)
  T/C: 46 % of control
dose: 375.0 mg/kg/injection, schedule: Q01DX007 (ip), vehicle: carboxymethylcellulose (CMC)
  T/C: 79 % of control

## CC[C@H](c1ccc(O)cc1)[C@@H](CC)c1ccc(O)cc1
dose: 3.8 mg/kg/injection, schedule: Q01DX007 (sc), vehicle: steriod suspending solution
  T/C: 186 % of control
dose: 7.5 mg/kg/injection, schedule: Q01DX007 (sc), vehicle: steriod suspending solution
  T/C: 67 % of control
dose: 15.0 mg/kg/injection, schedule: Q01DX007 (sc), vehicle: steriod suspending solution
  T/C: 37 % of control and 43 % of control
dose: 62.0 mg/kg/injection, schedule: Q01DX007 (sc), vehicle: steriod suspending solution
  T/C: 49 % of control and 67 % of control
dose: 125.0 mg/kg/injection, schedule: Q01DX007 (sc), vehicle: steriod suspending solution
  T/C: 40 % of control and 43 % of control
dose: 250.0 mg/kg/injection, schedule: Q01DX007 (sc), vehicle: steriod suspending solution
  T/C: 54 % of control

## O=C(O)c1[nH]c(=O)[nH]c(=O)c1F
dose: 3.35 mg/kg/injection, schedule: Q#A X014 (ip), vehicle: methylcellulose (MC)
  T/C: 62 % of control
dose: 5.0 mg/kg/injection, schedule: Q#A X014 (ip), vehicle: methylcellulose (MC)
  T/C: 49 % of control
dose: 7.5 mg/kg/injection, schedule: Q#A X014 (ip), vehicle: methylcellulose (MC)
  T/C: 46 % of control
dose: 11.25 mg/kg/injection, schedule: Q#A X014 (ip), vehicle: methylcellulose (MC)
  T/C: 22 % of control

## CC1OC(OC2C(CO)OC(O[C@H]3CC[C@@]4(C)C(=CC[C@H]5[C@@H]6C[C@@H]7O[C@@]8(CC[C@H](C)CN8)[C@@H](C)[C@@H]7[C@@]6(C)CC[C@@H]54)C3)C(OC3OC(C)C(O)C(O)C3O)C2O)C(O)C(O)C1O (stereo partly drawn)
dose: 5.0 mg/kg/injection, schedule: Q01DX007 (ip), vehicle: saline
  T/C: 51 % of control
dose: 15.0 mg/kg/injection, schedule: Q01DX007 (ip), vehicle: saline
  T/C: 62 % of control
dose: 20.0 mg/kg/injection, schedule: Q01DX007 (ip), vehicle: saline
  T/C: 15 % of control
[1]
  T/C: 21 % of control
[2]
  T/C: 16 % of control

## CC1CN1C(=O)Nc1cccc2c(NC(=O)N3CC3C)cccc12 (stereo not drawn)
dose: 9.5 mg/kg/injection, schedule: Q#A X014 (ip), vehicle: methylcellulose (MC)
  T/C: 66 % of control
dose: 14.0 mg/kg/injection, schedule: Q#A X014 (ip), vehicle: methylcellulose (MC)
  T/C: 62 % of control
dose: 20.5 mg/kg/injection, schedule: Q#A X014 (ip), vehicle: methylcellulose (MC)
  T/C: 31 % of control
dose: 21.0 mg/kg/injection, schedule: Q#A X014 (ip), vehicle: methylcellulose (MC)
  T/C: 35 % of control
dose: 31.5 mg/kg/injection, schedule: Q#A X014 (ip), vehicle: methylcellulose (MC)
  T/C: 23 % of control
dose: 35.0 mg/kg/injection, schedule: Q01DX007 (ip), vehicle: carboxymethylcellulose (CMC)
  T/C: 50 % of control
dose: 35.0 mg/kg/injection, schedule: Q01DX007 (ip), vehicle: saline
  T/C: 53 % of control
dose: 47.0 mg/kg/injection, schedule: Q#A X014 (ip), vehicle: methylcellulose (MC)
  T/C: 7 % of control
dose: 53.0 mg/kg/injection, schedule: Q01DX007 (ip), vehicle: saline
  T/C: 46 % of control
dose: 80.0 mg/kg/injection, schedule: Q01DX007 (ip), vehicle: saline
  T/C: 35 % of control

## CCc1c(CC(=O)O)c2cc(C)ccc2n1Cc1ccc(Cl)cc1
[3]
  T/C: 82 % of control
dose: 12.5 mg/kg/injection, schedule: Q01DX007 (ip), vehicle: saline
  T/C: 98 % of control and 87 % of control
dose: 24.0 mg/kg/injection, schedule: Q01DX007 (ip), vehicle: carboxymethylcellulose (CMC)
  T/C: 95 % of control
dose: 36.0 mg/kg/injection, schedule: Q01DX007 (ip), vehicle: carboxymethylcellulose (CMC)
  T/C: 89 % of control
dose: 54.0 mg/kg/injection, schedule: Q01DX007 (ip), vehicle: carboxymethylcellulose (CMC)
  T/C: 109 % of control
dose: 81.0 mg/kg/injection, schedule: Q01DX007 (ip), vehicle: carboxymethylcellulose (CMC)
  T/C: 73 % of control
dose: 100.0 mg/kg/injection, schedule: Q01DX007 (ip), vehicle: saline
  T/C: 64 % of control and 80 % of control

## Nc1ccn(C2OC(CO)C(O)C2O)c(=O)n1 (stereo not drawn)
dose: 8.0 mg/kg/injection, schedule: Q01DX007 (ip), vehicle: saline
  T/C: 47 % of control and 51 % of control
dose: 12.0 mg/kg/injection, schedule: Q01DX007 (ip), vehicle: saline
  T/C: 61 % of control and 70 % of control
dose: 27.0 mg/kg/injection, schedule: Q01DX007 (ip), vehicle: saline
  T/C: 51 % of control and 73 % of control
[2]
  T/C: 37 % of control and 46 % of control
dose: 60.0 mg/kg/injection, schedule: Q01DX007 (ip), vehicle: saline
  T/C: 13 % of control and 16 % of control
dose: 90.0 mg/kg/injection, schedule: Q01DX007 (ip), vehicle: saline
  T/C: 10 % of control

## C1OC1C1CO1 (stereo not drawn)
dose: 4.5 mg/kg/injection, schedule: Q01DX007 (ip), vehicle: carboxymethylcellulose (CMC)
  T/C: 68 % of control
dose: 4.63 mg/kg/injection, schedule: Q01DX007 (ip), vehicle: carboxymethylcellulose (CMC)
  T/C: 99 % of control
dose: 9.0 mg/kg/injection, schedule: Q01DX007 (ip), vehicle: carboxymethylcellulose (CMC)
  T/C: 97 % of control
dose: 9.25 mg/kg/injection, schedule: Q01DX007 (ip), vehicle: carboxymethylcellulose (CMC)
  T/C: 74 % of control
dose: 13.76 mg/kg/injection, schedule: Q01DX007 (ip), vehicle: carboxymethylcellulose (CMC)
  T/C: 80 % of control
dose: 17.2 mg/kg/injection, schedule: Q01DX007 (ip), vehicle: carboxymethylcellulose (CMC)
  T/C: 107 % of control
dose: 18.0 mg/kg/injection, schedule: Q01DX007 (ip), vehicle: carboxymethylcellulose (CMC)
  T/C: 53 % of control
dose: 18.5 mg/kg/injection, schedule: Q01DX007 (ip), vehicle: carboxymethylcellulose (CMC)
  T/C: 71 % of control
dose: 22.93 mg/kg/injection, schedule: Q01DX007 (ip), vehicle: carboxymethylcellulose (CMC)
  T/C: 82 % of control
dose: 34.4 mg/kg/injection, schedule: Q01DX007 (ip), vehicle: carboxymethylcellulose (CMC)
  T/C: 80 % of control

## O=C(NC(CO)C(=O)O)C(Cl)Cl (stereo not drawn)
dose: 500.0 mg/kg/injection, schedule: Q#A X014 (ip), vehicle: methylcellulose (MC)
  T/C: 47 % of control
dose: 1000.0 mg/kg/injection, schedule: Q#A X014 (ip), vehicle: methylcellulose (MC)
  T/C: 52 % of control
dose: 1500.0 mg/kg/injection, schedule: Q#A X014 (ip), vehicle: methylcellulose (MC)
  T/C: 60 % of control
dose: 2000.0 mg/kg/injection, schedule: Q#A X014 (ip), vehicle: methylcellulose (MC)
  T/C: 66 % of control
dose: 2500.0 mg/kg/injection, schedule: Q#A X014 (ip), vehicle: methylcellulose (MC)
  T/C: 68 % of control

## O=c1cccc2n1CC1CNC[C@H]2C1
dose: 0.78 mg/kg/injection, schedule: Q01DX007 (ip), vehicle: saline
  T/C: 92 % of control
dose: 1.56 mg/kg/injection, schedule: Q01DX007 (ip), vehicle: saline
  T/C: 97 % of control
dose: 3.13 mg/kg/injection, schedule: Q01DX007 (ip), vehicle: saline
  T/C: 62 % of control and 87 % of control
[3]
  T/C: 64 % of control

## C[C@@H]1C[C@@]2(C)[C@@H](CC[C@@H]3[C@@H]2CC[C@]2(C)[C@@H](O)CC[C@@H]32)CC1=O
dose: 25.0 mg/kg/injection, schedule: Q#A X014 (oral), vehicle: steriod suspending solution
  T/C: 120 % of control
dose: 75.0 mg/kg/injection, schedule: Q#A X014 (oral), vehicle: steriod suspending solution
  T/C: 75 % of control
dose: 187.5 mg/kg/injection, schedule: Q#A X014 (oral), vehicle: steriod suspending solution
  T/C: 63 % of control

## O=C(O)CCC(=O)CCl
dose: 6.2 mg/kg/injection, schedule: Q01DX007 (ip), vehicle: saline
  T/C: 76 % of control
dose: 9.3 mg/kg/injection, schedule: Q01DX007 (ip), vehicle: saline
  T/C: 57 % of control
dose: 14.0 mg/kg/injection, schedule: Q01DX007 (ip), vehicle: saline
  T/C: 57 % of control
dose: 21.0 mg/kg/injection, schedule: Q01DX007 (ip), vehicle: saline
  T/C: 46 % of control and 55 % of control
[1]
  T/C: 31 % of control
